Results as given in US20050032096A1, “Methods for predicting drug sensitivity in patients afflicted with hypertension” (deCODE genetics ehf., priority 2003, published 2005).

Assays:
[1] = tested on: hypertensive patients; test: Clinical response to 8 weeks of drug therapy, patients categorized as responders or non-responders; type: in vivo, human; settings: 8 weeks therapy; for patients who demonstrate a clinical response (responders): BP reduced by 10 mm/Hg systole and/or 6 mm/Hg diastole or more
Text: • a. Hypertension diagnosed by a Cardiologist. The method used to diagnose hypertension is based on the ICE-9 and ICD-10 classification system, and concurs with the diagnostic hypertension criteria outlined by the American Heart Association and includes the following measures: Blood pressure greater than 140 systolic and 90 diastolic (adult person). For this study, individuals will be recruited primarily with moderate to severe hypertension. • b. Patients with hypertension with a severity level that is judged to be appropriate to treatment with Ramace™ were recruited to participate in the study. Study patients signed a consent and donate a blood sample for the study. • c. Phenotype was confirmed by measurement of blood pressure levels at different time points. • d. Age 12-80 years. • e. Both males and females were recruited. • f. White Caucasian (Icelandic hypertensive patient population). • g. Ramace™ therapy for 8 weeks. Examination by a study cardiologist every 3 weeks who confirmed clinical response to Ramace™ therapy. • h. Response to Ramace™: Patients were categorized as either Ramace™ responders or Ramace™ non-responders. […] The same cardiologists examined all 57 patients before and after Ramace™ trial.
All patients recruited were treated with therapeutic doses of Ramace™ for minimum of 8 weeks and examined by the study cardiologist before and after starting the drug. Blood samples were drawn at a similar time (e.g., around 9 AM) in the morning from all patients. The dose of the ACE inhibitor was recorded for all patients, before and 4 weeks after the patient was started on the study drug. No diet restrictions are implemented.
(§1) • a. Hypertension diagnosed by a Cardiologist. The method used to diagnose hypertension is based on the ICE-9 and ICD-10 classification system, and concurs with the diagnostic hypertension criteria outlined by the American Heart Association and includes the following measures: Blood pressure greater than 140 systolic and 90 diastolic (adult person). For this study, individuals will be recruited primarily with moderate to severe hypertension. • b. Patients with hypertension with a severity level that is judged to be appropriate to treatment with Norvasc™ were recruited to participate in the study. Study patients signed a consent and donate a blood sample for the study. • c. Phenotype was confirmed by measurement of blood pressure levels at different time points. • d. Age 12-80 years. • e. Both males and females were recruited. • f. White Caucasian (Icelandic hypertensive patient population). • g. […] Response to Norvasc™: Patients were categorized as either Norvasc™ responders or Norvasc™ non-responders.
Blood samples were drawn at a similar time (e.g., around 9 AM) in the morning from all patients. The dose was recorded for all patients. No diet restrictions were implemented.
as §1, with “Cozaar™” for “Norvasc™”, “Cozaar™:” for “Norvasc™:”

[2] = tested on: patients with low renin hypertension; settings: cited from earlier work
[3] = target: T1, AT1 receptor (Homo sapiens, UniProt P30556); settings: cited from earlier work
T1 sequence (P30556 1-359): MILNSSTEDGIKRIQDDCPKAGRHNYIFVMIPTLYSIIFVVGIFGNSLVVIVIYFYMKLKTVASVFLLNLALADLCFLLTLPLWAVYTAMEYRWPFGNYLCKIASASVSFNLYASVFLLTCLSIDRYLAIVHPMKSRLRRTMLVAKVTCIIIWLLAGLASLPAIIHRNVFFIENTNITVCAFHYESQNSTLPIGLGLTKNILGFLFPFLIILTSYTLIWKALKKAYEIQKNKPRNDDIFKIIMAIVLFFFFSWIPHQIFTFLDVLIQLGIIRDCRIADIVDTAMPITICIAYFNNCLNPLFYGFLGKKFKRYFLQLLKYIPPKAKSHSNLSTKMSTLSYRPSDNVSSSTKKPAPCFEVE

[4] = target: ACE (Homo sapiens, UniProt P12821); settings: cited from earlier work
ACE, sequence (P12821 30-1306, species assumed): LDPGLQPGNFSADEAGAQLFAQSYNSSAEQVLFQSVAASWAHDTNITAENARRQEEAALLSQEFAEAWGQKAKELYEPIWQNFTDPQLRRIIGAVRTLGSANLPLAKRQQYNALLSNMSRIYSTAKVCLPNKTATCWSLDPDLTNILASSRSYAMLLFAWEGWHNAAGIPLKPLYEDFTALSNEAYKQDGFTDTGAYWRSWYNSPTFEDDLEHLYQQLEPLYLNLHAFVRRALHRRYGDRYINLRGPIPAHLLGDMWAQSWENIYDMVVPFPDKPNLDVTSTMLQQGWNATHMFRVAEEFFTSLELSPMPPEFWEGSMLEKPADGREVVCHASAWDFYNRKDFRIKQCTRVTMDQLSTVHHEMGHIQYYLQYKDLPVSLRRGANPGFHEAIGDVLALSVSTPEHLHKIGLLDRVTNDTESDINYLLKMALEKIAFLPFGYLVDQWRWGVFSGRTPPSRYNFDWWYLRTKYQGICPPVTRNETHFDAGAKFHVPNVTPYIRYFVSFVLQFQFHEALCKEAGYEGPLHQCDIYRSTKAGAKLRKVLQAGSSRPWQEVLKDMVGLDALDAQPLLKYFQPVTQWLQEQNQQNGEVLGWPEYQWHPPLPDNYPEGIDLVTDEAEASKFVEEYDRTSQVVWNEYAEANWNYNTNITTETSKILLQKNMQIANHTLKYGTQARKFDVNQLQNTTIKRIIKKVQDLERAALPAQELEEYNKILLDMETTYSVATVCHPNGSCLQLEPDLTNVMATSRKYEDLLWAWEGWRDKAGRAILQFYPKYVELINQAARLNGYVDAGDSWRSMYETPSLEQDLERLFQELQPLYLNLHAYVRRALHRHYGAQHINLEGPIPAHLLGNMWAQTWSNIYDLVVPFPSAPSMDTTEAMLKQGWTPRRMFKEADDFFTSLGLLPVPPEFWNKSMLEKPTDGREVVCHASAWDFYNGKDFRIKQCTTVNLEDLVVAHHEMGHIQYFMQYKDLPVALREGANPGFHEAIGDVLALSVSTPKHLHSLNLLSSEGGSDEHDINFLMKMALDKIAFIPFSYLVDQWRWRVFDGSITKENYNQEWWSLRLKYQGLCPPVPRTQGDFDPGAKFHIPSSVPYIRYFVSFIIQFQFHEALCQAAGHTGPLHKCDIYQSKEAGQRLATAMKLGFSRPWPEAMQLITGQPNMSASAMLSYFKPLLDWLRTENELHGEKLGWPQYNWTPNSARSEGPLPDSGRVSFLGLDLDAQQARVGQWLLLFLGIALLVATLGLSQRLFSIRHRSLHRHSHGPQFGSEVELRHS

[5] = in vivo; cited from earlier work
[6] = tested on: patients with chronic stable angina; settings: placebo 4.4%, P=NS; cited from earlier work

| Compound | non-responders ([1]; of 57 hypertensive patients) | patients who demonstrate a clinical response (responders) ([1]; of 57 hypertensive patients) | anti-hypertensive effect [2] | non-responders ([1]; of 65 hypertensive patients) | patients who demonstrate a clinical response (responders) ([1]; of 65 hypertensive patients) | partial agonist activity at the AT1 receptor [3] | inhibition of ACE [4] | time to mean peak serum concentration [5] | patients who discontinued therapy due to adverse events [6] |
| --- | --- | --- | --- | --- | --- | --- | --- | --- | --- |
| CCOC(=O)[C@H](CCc1ccccc1)N[C@@H](C)C(=O)N1[C@H](C(=O)O)C[C@@H]2CCC[C@@H]21 [Ramace, ramipril] | 22 patients | 35 patients | anti-hypertensive |  |  |  |  |  |  |
| CCCCc1nc(Cl)c(CO)n1Cc1ccc(-c2ccccc2-c2nn[nH]n2)cc1 [Cozaar, Losartan potassium] |  |  |  | 18 patients | 47 patients | do not exhibit any partial agonist activity | Neither losartan nor its active metabolite inhibits ACE | one |  |
| CCOC(=O)C1=C(COCCN)NC(C)=C(C(=O)OC)C1c1ccccc1Cl (centres unmarked) [Norvasc, amlodipine] |  |  |  | 19 patients | 46 patients |  |  |  | 2% |
